This is an account of results in patent US10968214B2, “KRas G12C inhibitors” (Eli Lilly and Company, priority 2018, dated 2021).

SMILES strings stand for the structures. “And” between values parts separate entries of the source, which are not always exact repeats. Identical values can stand only once. Like-named read-outs stand apart in the source and are kept apart here.

In one assay the test system is H2122. As to the kind of experiment: Combination 4 day growth assay (Cell TiterGlo), H2122. The class given is cell-based. The settings on record: Homo sapiens, NCI-H2122, 96 h, single treatment, read-out: Absolute IC50. Here is the method: (§1) Cell lines for this study are obtained from ATCC and grown under ATCC recommended conditions, except for LXFA-983L, which is obtained from Oncotest/Charles Rivers Laboratories, Wilmington, Mass. and D122-96, which is obtained from L. Eisenbach (Weizman Institute of Science, Rehovot, Israel)—both grown under recommended conditions. […] The proliferation assay is performed as a 4 day growth assay using Cell TiterGlo® as the readout. Briefly, cells are plated in 96-well cell culture plates and allowed to adhere overnight at 37° C. The following day, cells are treated with compounds, either single treatments or combination treatments. First, the testing compounds are serially diluted in DMSO, followed by dilution into media as a 5× concentration with 1% DMSO, and finally added to cells in media to dilute to 1×. The cells are incubated at 37° C. for 4 more days. At the end of the incubation period, Cell TiterGlo® reagent is mixed and added to the wells. After 10 minutes, the luminescence is read by a Perkin Elmer Envision instrument. Absolute IC50 values generated by a 4-parameter logistics model for the single and combination treatments are generated, followed by combination indexes for each combination treatment and cell line. The combination IC50 values are adjusted based on the total concentration of each compound when added together. […] The combination index (CI) measures the degree to which the potency of a combination therapy differs from the expected-if-additive potency and is based on the Loewe definition of additivity.
(§2) [formula] Where • CAy and CBy are the concentrations of therapies A and B that produce an effect, y, when given in combination • ICAy and ICBy are the concentrations of A and B that produce an effect, y, when given individually The biological interpretation of the combination index is as follows: synergistic if the combination index <0.5, additive if the combination index is between 0.5 and 2, and antagonistic if the combination index is >2.

A further assay relates to LXFA-983L. Nature of the assay: Combination 4 day growth assay (Cell TiterGlo), LXFA-983L. The class given is cell-based. To be noted: 96 h, single treatment, read-out: Absolute IC50. How it is done:
as §1, §2

The next assay relates to UM-UC-3. As to the kind of experiment: Combination 4 day growth assay (Cell TiterGlo), UM-UC-3. The class given is cell-based. To be noted: Homo sapiens, UMUC3, 96 h, single treatment, read-out: Absolute IC50. How it is done:
as §1, §2

For a further assay, the system named is SW1463 xenograft. As to the kind of experiment: Anti-tumor growth activity, SW1463 colorectal xenograft. The class given is in vivo. The settings on record: Abemaciclib 50 mg/kg QDx28.
Another assay has as its system H2122 xenograft. As to the kind of experiment: Anti-tumor growth activity, lung cancer H2122 xenograft mouse model. Type of assay: in vivo. To be noted: H2122 Lung; Abemaciclib 50 mg/kg QDx28. Here is the method: To evaluate in vivo target inhibition and anti-tumor efficacy of a compound, Human lung cancer cells, H358 or H2122 are implanted into nude mice xenograft tumor models. Either H358 or H2122 cells (10×10^6 in a 1:1 Matrigel® mix, 0.2 mL total volume) are implanted by subcutaneous injection in hind leg of nude female mice (Harlan Laboratories). A total of 5 mice each group are used for efficacy study, and a total of 3-4 mice each group are used for target engagement and PD study. Treatment is initiated with oral administration (gavage) of a test compound or vehicle (20% Captisol®, 25 mM phosphate, pH 2.0 in 0.2 mL volume when the tumor size reaches approximately […]. Tumor growth and body weight are monitored over time to evaluate efficacy and signs of toxicity. Bidimensional measurements of tumors are performed twice a week and tumor volumes are calculated based on mid-axis length and mid-axis width. Tumor volume data are transformed to a log scale to equalize variance across time and treatment groups. The log volume data are analyzed with a two-way repeated measures analysis of variance by time and treatment using the mixed procedures in SAS software (version 8.2). The correlation model for the repeated measures is spatial power. Treated groups are compared to the control group at each time point. The mixed procedure is also used separately for each treatment group to calculate adjusted means and standard errors at each time point. Both analyses account for the autocorrelation within each animal. The adjusted means and standard errors are plotted for each treatment group versus time.
H2122 lung tumor cells (10×10^6) are implanted by subcutaneous injection in hind leg of nude female mice (Taconic Biosciences). A total of 5 mice each group are used for efficacy study.

For another assay, the system named is Kyse-410. Nature of the assay: Combination 4 day growth assay (Cell TiterGlo), KYSE-410. The class given is cell-based. To be noted: Homo sapiens, single treatment, read-out: Absolute IC50. Here is the method:
(§3) Cell lines for this study are obtained from ATCC and grown under ATCC recommended conditions, except for LXFA-983L, which is obtained from Oncotest/Charles Rivers Laboratories, Wilmington, Mass. and D122-96, which is obtained from L. Eisenbach (Weizman Institute of Science, Rehovot, Israel)—both grown under recommended conditions. […] The proliferation assay is performed as a 4 day growth assay using Cell TiterGlo® as the readout. Briefly, cells are plated in 96-well cell culture plates and allowed to adhere overnight at 37° C. The following day, cells are treated with compounds, either single treatments or combination treatments. First, the testing compounds are serially diluted in DMSO, followed by dilution into media as a 5× concentration with 1% DMSO, and finally added to cells in media to dilute to 1×. The cells are incubated at 37° C. for 4 more days. At the end of the incubation period, Cell TiterGlo® reagent is mixed and added to the wells. After 10 minutes, the luminescence is read by a Perkin Elmer Envision instrument. Absolute IC50 values generated by a 4-parameter logistics model for the single and combination treatments are generated, followed by combination indexes for each combination treatment and cell line. The combination IC50 values are adjusted based on the total concentration of each compound when added together. […]

In another assay the test system is Calu-1. Nature of the assay: Combination 4 day growth assay (Cell TiterGlo), Calu-1. The class given is cell-based. To be noted: Homo sapiens, single treatment, read-out: Absolute IC50. Here is the method:
as §1, §2

In the next assay the test system is H358. Nature of the assay: Combination 4 day growth assay (Cell TiterGlo), H358. The class given is cell-based. To be noted: Homo sapiens, NCI-H358, 96 h, single treatment, read-out: Absolute IC50. How it is done: as §1, §2
For a further assay, the system named is SW756. As to the kind of experiment: Combination 4 day growth assay (Cell TiterGlo), SW756. Type of assay: cell-based. The settings on record: Homo sapiens, single treatment, read-out: Absolute IC50. Here is the method:
as §3

The next assay has as its system H23. Nature of the assay: Combination 4 day growth assay (Cell TiterGlo), H23. Type of assay: cell-based. The settings on record: Homo sapiens, NCI-H23, 96 h, single treatment, read-out: Absolute IC50. How it is done: as §1, §2
For a further assay, the system named is SW1463. Nature of the assay: Combination 4 day growth assay (Cell TiterGlo), SW1463. The class given is cell-based. To be noted: Homo sapiens, single treatment, read-out: Absolute IC50. Here is the method: as §1, §2
The next assay concerns SW1573. As to the kind of experiment: Combination 4 day growth assay (Cell TiterGlo), SW1573. The class given is cell-based. To be noted: Homo sapiens, 96 h, single treatment, read-out: Absolute IC50. Here is the method:
as §1, §2

For a further assay, the system named is SW837. Nature of the assay: Combination 4 day growth assay (Cell TiterGlo), SW837. To be noted: Homo sapiens, single treatment, read-out: Absolute IC50. The class given is cell-based. Here is the method: as §1, §2
In another assay the test system is MIA Paca-2. As to the kind of experiment: Combination 4 day growth assay (Cell TiterGlo), MIA Paca-2. The class given is cell-based. The settings on record: Homo sapiens, single treatment, read-out: Absolute IC50. How it is done:
as §1, §2

For a further assay, the system named is D122-96. As to the kind of experiment: Combination 4 day growth assay (Cell TiterGlo), D122-96. Type of assay: cell-based. To be noted: Mus musculus, 96 h, single treatment, read-out: Absolute IC50. How it is done:
as §1, §2

Another assay relates to H1792. Nature of the assay: Combination 4 day growth assay (Cell TiterGlo), H1792. The settings on record: Homo sapiens, NCI-H1792, 96 h, single treatment, read-out: Absolute IC50. Type of assay: cell-based. How it is done: as §3
The next assay relates to MiaPaca-2 xenograft. Nature of the assay: Anti-tumor growth activity, MiaPaca-2 pancreatic xenograft. Type of assay: in vivo. To be noted: Abemaciclib 50 mg/kg QDx28.
For another assay, the system named is H1373. Nature of the assay: Combination 4 day growth assay (Cell TiterGlo), H1373. The class given is cell-based. The settings on record: Homo sapiens, NCI-H1373, 96 h, single treatment, read-out: Absolute IC50. Here is the method: as §3
The test system of another assay is H2030. As to the kind of experiment: Combination 4 day growth assay (Cell TiterGlo), H2030. Type of assay: cell-based. The settings on record: Homo sapiens, NCI-H2030, 96 h, single treatment, read-out: Absolute IC50. Here is the method:
as §3

Another assay relates to SW837 xenograft. Nature of the assay: Anti-tumor growth activity, SW837 colorectal xenograft. The class given is in vivo. To be noted: Abemaciclib 50 mg/kg QDx28.
In the next assay the test system is EL3187 (PDX). Nature of the assay: Anti-tumor growth activity, EL3187 lung PDX. Type of assay: in vivo. The settings on record: EL3187 Lung PDX; Erlotinib 25 mg/kg QDx28.

On to `CCN1CCN(Cc2ccc(Nc3ncc(F)c(-c4cc(F)c5nc(C)n(C(C)C)c5c4)n3)nc2)CC1` [Abemaciclib, abemaciclib], for which the IC50 in the assay on H2122 is 548 nM; with LXFA-983L, more than 10000 nM; in the assay with UM-UC-3, 1720 nM; with Kyse-410 (96 h), 3010 nM; in the assay on Calu-1 (96 h), more than 10000 nM; in the assay with H358, 1230 nM. Moreover, the IC50 in the assay on SW756 (96 h) worked out at 4980 nM; with H23, 4970 nM; in the assay on SW1463 (96 h), 328 nM; in the assay with SW1573 it was 996 nM; in the assay on SW837 (96 h), 3590 nM; in the assay on MIA Paca-2 (96 h) it was 755 nM. Moreover, the IC50 with D122-96 is 5050 nM; with H1792, 1100 nM; in the assay with H1373, more than 10000 nM; with H2030, 9030 nM. For the same compound, the entries for the “In Vivo Anti-Tumor Activities” value in the assay with SW1463 xenograft, in the assay on MiaPaca-2 xenograft and in the assay with SW837 xenograft were 55.1, 46.88 and −2.13, respectively. The “Tumor Growth Inhibition (%) or Regression (−%)” value in the assay on H2122 xenograft is 79.3 and 79.1.
For `C#Cc1cccc(Nc2ncnc3cc(OCCOC)c(OCCOC)cc23)c1` [Erlotinib, erlotinib], the IC50 in the assay on H2122 is 352 nM; in the assay with LXFA-983L (LXFA 983L), 2820 nM; in the assay with UM-UC-3, more than 10000 nM; in the assay with Kyse-410 (KYSE-410, 96 h) it was 469 nM; in the assay with Calu-1 (Calu-1, 96 h), more than 10000 nM; in the assay with H358, 247 nM. Moreover, the IC50 with SW756 (SW756, 96 h) is more than 10000 nM; in the assay on H23 it was more than 10000 nM; with SW1463 (SW1463, 96 h) it was 446 nM; in the assay on SW1573, more than 10000 nM; with SW837 (SW837, 96 h) it was more than 10000 nM; with MIA Paca-2 (MIA PaCa-2, 96 h), more than 10000 nM. The IC50 is more than 10000 nM in the assay with D122-96, more than 10000 nM with H1792, more than 10000 nM in the assay on H1373 and 1480 nM in the assay with H2030. For the same compound, the “In Vivo Anti-Tumor Activities” value with EL3187 (PDX) came out at 7.8.
